Measured values taken from ChEMBL document CHEMBL5233223, “Dammarane-type leads panaxadiol and protopanaxadiol for drug discovery: Biological activity and structural modification” (Eur J Med Chem, 2020).
≈ marks a conversion by molar mass, not a printed value. Each block holds one compound with its values, some of them ahead of it.

Key:
HCT-116 [1] = test: Antiproliferative activity against human HCT-116 cells assessed as cell growth inhibition; assay type: functional, cell-based
SW480 [2] = test: Antiproliferative activity against human SW480 cells assessed as cell growth inhibition; assay type: functional, cell-based
MCF7 = test: Antiproliferative activity against human MCF7 cells assessed as cell growth inhibition; assay type: functional, cell-based
HepG2 2.2.15 = test: Antiproliferative activity against human HepG2.2.15 cells assessed as cell growth inhibition; assay type: functional, cell-based
Hepatitis B virus [3] = test: Antiviral activity against Hepatitis B virus infected in human HepG2.2.15 cells assessed as inhibition of viral DNA replication by MTT assay; assay type: functional, organism-based; conditions: HepG2 2.2.15
Hepatitis B virus [4] = test: Antiviral activity against Hepatitis B virus infected in human HepG2.2.15 cells assessed as inhibition of HBsAg level by MTT assay; assay type: functional, organism-based; conditions: HepG2 2.2.15
Hepatitis B virus [5] = test: Antiviral activity against Hepatitis B virus infected in human HepG2.2.15 cells assessed as inhibition of HBeAg level by MTT assay; assay type: functional, organism-based; conditions: HepG2 2.2.15
HCT-116 [6] = test: Induction of apoptosis in human HCT-116 cells at 20 uM in presence of EGCG at 30 uM relative to control; assay type: functional
HCT-116 [7] = test: Induction of apoptosis in human HCT-116 cells at 20 uM in presence of EGCG at 20 uM relative to control; assay type: functional
HCT-116 [8] = test: Induction of apoptosis in human HCT-116 cells at 20 uM relative to control; assay type: functional
HCT-116 [9] = test: Induction of apoptosis in human HCT-116 cells at 10 uM relative to control; assay type: functional
HCT-116 [10] = test: Induction of apoptosis in human HCT-116 cells at 10 uM in presence of EGCG at 10 uM relative to control; assay type: functional
HCT-116 [11] = test: Induction of apoptosis in human HCT-116 cells at 10 uM in presence of EGCG at 30 uM relative to control; assay type: functional
HCT-116 [12] = test: Induction of apoptosis in human HCT-116 cells at 10 uM in presence of EGCG at 20 uM relative to control; assay type: functional
HCT-116 [13] = test: Induction of apoptosis in human HCT-116 cells at 20 uM in presence of EGCG at 10 uM relative to control; assay type: functional
HCT-116 [14] = test: Antiproliferative activity against human HCT-116 cells assessed as cell growth inhibition in presence of irinotecan; assay type: functional, cell-based
SW480 [15] = test: Antiproliferative activity against human SW480 cells assessed as cell growth inhibition in presence of irinotecan; assay type: functional, cell-based
Bacillus subtilis = test: Antimicrobial activity against Bacillus subtilis assessed as bacterial growth inhibition; assay type: functional
Staphylococcus aureus = test: Antimicrobial activity against Staphylococcus aureus USA300 assessed as bacterial growth inhibition; assay type: functional
HeLa = test: Antiproliferative activity against human HeLa cells assessed as cell growth inhibition; assay type: functional, cell-based
LNCaP = test: Antiproliferative activity against human LNCAP cells assessed as cell growth inhibition; assay type: functional, cell-based
PC-3 = test: Antiproliferative activity against human PC-3 cells assessed as cell growth inhibition; assay type: functional, cell-based
[16] = biological target: 11-beta-hydroxysteroid dehydrogenase 1 (Homo sapiens, UniProt P28845); test: Inhibition of human 11beta-HSD1
Sequence of 11-beta-hydroxysteroid dehydrogenase 1 (Homo sapiens, UniProt P28845) (P28845 whole entry): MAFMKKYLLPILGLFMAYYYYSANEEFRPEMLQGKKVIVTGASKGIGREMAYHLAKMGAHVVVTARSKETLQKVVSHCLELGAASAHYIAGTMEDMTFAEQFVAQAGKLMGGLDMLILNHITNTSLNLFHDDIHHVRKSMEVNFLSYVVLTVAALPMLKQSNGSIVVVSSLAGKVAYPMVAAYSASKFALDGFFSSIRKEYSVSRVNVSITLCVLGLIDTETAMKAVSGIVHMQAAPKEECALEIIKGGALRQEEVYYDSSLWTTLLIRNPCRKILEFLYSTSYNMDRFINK

[17] = biological target: 11-beta-hydroxysteroid dehydrogenase 1 (Mus musculus, UniProt P50172); test: Inhibition of mouse 11beta-HSD1
Sequence of 11-beta-hydroxysteroid dehydrogenase 1 (Mus musculus, UniProt P50172) (P50172 whole entry): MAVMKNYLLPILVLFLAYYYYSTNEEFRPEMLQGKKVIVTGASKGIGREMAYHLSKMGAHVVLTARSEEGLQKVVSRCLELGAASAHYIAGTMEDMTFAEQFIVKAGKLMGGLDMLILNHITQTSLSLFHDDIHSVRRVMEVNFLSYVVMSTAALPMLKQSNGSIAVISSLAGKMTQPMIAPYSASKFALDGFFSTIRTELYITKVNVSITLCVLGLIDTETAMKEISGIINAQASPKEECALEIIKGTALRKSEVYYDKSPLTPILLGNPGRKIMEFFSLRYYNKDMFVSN

Compound: CC1(C)CCC[C@](C)(C2CC[C@]3(C)C2[C@H](O)CC2[C@@]4(C)CC[C@H](OC(=O)c5cc(O)c(O)c(O)c5)C(C)(C)C4CC[C@]23C)O1 (some centres not stated)
IC50 (HepG2 2.2.15): 7.27 µM

Compound: CC1(C)CCC[C@](C)(C2CC[C@]3(C)C2[C@H](O)CC2[C@@]4(C)CC[C@H](OC(=O)c5cccs5)C(C)(C)C4CC[C@]23C)O1 (some centres not stated)
IC50 (HepG2 2.2.15): 7.27 µM | IC50 (Hepatitis B virus [3]): 16.5 µM | IC50 (Hepatitis B virus [4]): 30.8 µM | IC50 (Hepatitis B virus [5]): 18.2 µM

Compound: CC1(C)CCC[C@@](C)(C2CC[C@]3(C)C2[C@H](O)CC2[C@@]4(C)CC[C@H](O)C(C)(C)C4CC[C@]23C)O1 (some centres not stated)
Activity (HCT-116 [6]): 48% | Activity (HCT-116 [7]): 40.7% | Activity (HCT-116 [8]): 19% | Activity (HCT-116 [9]): 5.7% | Activity (HCT-116 [10]): 14.1% | Activity (HCT-116 [11]): 35.2% | Activity (HCT-116 [12]): 30.2% | Activity (HCT-116 [13]): 27.8% | IC50 (HCT-116 [1]): 12.1 µM | IC50 (SW480 [2]): 5 µM | IC50 (HCT-116 [14]): 11.8 µM | IC50 (SW480 [15]): 4.4 µM

Compound: CC(C)(O)[C@H]1CC[C@@](C)([C@H]2CC[C@]3(C)C2[C@H](O)CC2[C@@]4(C)CC[C@H](OC(=O)C5CCNCC5)C(C)(C)C4CC[C@]23C)O1 (some centres not stated)
MIC (Bacillus subtilis): 2 µg/mL (≈ 3.4 µM) | MIC (Staphylococcus aureus): 8 µg/mL (≈ 13.6 µM)

Compound: CC(C)(O)[C@@H]1CC[C@@](C)([C@H]2CC[C@]3(C)C2[C@H](O)CC2[C@@]4(C)CC[C@H](O)C(C)(C)C4CC[C@]23C)O1 (some centres not stated)
IC50 (HeLa): 17.7 µM

Compound: CC1(C)CCC[C@](C)(C2CC[C@]3(C)C2[C@H](O)CC2[C@@]4(C)CC[C@H](OC(=O)c5ccccc5O)C(C)(C)C4CC[C@]23C)O1 (some centres not stated)
IC50 (HepG2 2.2.15): 7.27 µM

Compound: CC1(C)CCC[C@](C)(C2CC[C@]3(C)C2[C@H](O)CC2[C@@]4(C)CC[C@H](OC(=O)CCC(=O)O)C(C)(C)C4CC[C@]23C)O1 (some centres not stated)
IC50 (HepG2 2.2.15): 7.27 µM

Compound: CC(=O)Oc1ccccc1C(=O)O[C@H]1CC[C@@]2(C)C(CC[C@]3(C)C2C[C@@H](O)C2C([C@@]4(C)CCCC(C)(C)O4)CC[C@]23C)C1(C)C (some centres not stated)
IC50 (MCF7): 2.56 µM

The next lines start with the values.

IC50 (HCT-116 [1]): 43.3 µM | IC50 (SW480 [2]): 30 µM | IC50 (MCF7): 37.3 µM
Compound: CC(=O)O[C@H]1CC[C@@]2(C)C(CC[C@]3(C)C2C[C@@H](O)C2C([C@@](C)(O)CCC=C(C)C)CC[C@]23C)C1(C)C (some centres not stated)

IC50 (LNCaP): < 38.9 µM | IC50 (PC-3): 11.7 µM
Compound: CC1(C)CCC[C@](C)(C2CC[C@]3(C)C2[C@H](O)CC2[C@@]4(C)C/C(=C/c5ccc(O)cc5)C(=O)C(C)(C)C4CC[C@]23C)O1 (some centres not stated)

IC50 (PC-3): 45.6 µM
Compound: COc1cc(/C=C2/C[C@@]3(C)C(CC[C@]4(C)C3C[C@@H](O)C3C([C@@]5(C)CCCC(C)(C)O5)CC[C@]34C)C(C)(C)C2=O)cc(OC)c1OC (some centres not stated)

IC50 [16]: 0.015 µM | IC50 [17]: 3.3 µM
Compound: CO[C@@H]1CC(=O)[C@]2(C)C1[C@H](OC(C)=O)CC1[C@@]3(C)CC[C@H](O)C(C)(C)C3CC[C@]12C (some centres not stated)

IC50 (MCF7): 8.62 µM
Compound: CC1(C)CCC[C@](C)(C2CC[C@]3(C)C2[C@H](O)CC2[C@@]4(C)CC[C@H](OC(=O)c5c(Cl)c(Cl)c(Cl)c(Cl)c5C(=O)O)C(C)(C)C4CC[C@]23C)O1 (some centres not stated)
